From PubChem BioAssay (NCI)
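Five compound concentrations were applied to cells in 96-well plates for 48 hours; endpoints were derived by simple linear interpolation of the resulting dose-response curve. Here, GI50 denotes the concentration required for 50% inhibition of growth. TGI is the concentration that stops growth completely.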

What was measured:
Assay in all cases: NCI anticancer screen, dose series, 48 h
RPMI-8226 leukemia = test system: RPMI-8226 leukemia
SNB-75 CNS = test system: SNB-75 CNS
PC-3 prostate = test system: PC-3 prostate
KM12 colon = test system: KM12 colon
HT29 colon = test system: HT29 colon
RXF 393 renal = test system: RXF 393 renal
MDA-MB-231 breast = test system: MDA-MB-231 breast
786-0 renal = test system: 786-0 renal
SF-295 CNS = test system: SF-295 CNS
OVCAR-4 ovarian = test system: OVCAR-4 ovarian
UO-31 renal = test system: UO-31 renal
MOLT-4 leukemia = test system: MOLT-4 leukemia
HCT-15 colon = test system: HCT-15 colon
SK-MEL-5 melanoma = test system: SK-MEL-5 melanoma
NCI-H460 lung = test system: NCI-H460 lung
ACHN renal = test system: ACHN renal
COLO 205 colon = test system: COLO 205 colon
NCI-H522 lung = test system: NCI-H522 lung
U251 CNS = test system: U251 CNS
A549 NSCLC = test system: A549 NSCLC
DU-145 prostate = test system: DU-145 prostate
NCI/ADR-RES ovarian = test system: NCI/ADR-RES ovarian
SN12C renal = test system: SN12C renal
CCRF-CEM leukemia = test system: CCRF-CEM leukemia
MDA-MB-435 = test system: MDA-MB-435
TK-10 renal = test system: TK-10 renal
LOX IMVI melanoma = test system: LOX IMVI melanoma
HL-60(TB) leukemia = test system: HL-60(TB) leukemia
IGROV1 ovarian = test system: IGROV1 ovarian
SF-268 CNS = test system: SF-268 CNS
HCC-2998 colon = test system: HCC-2998 colon
MALME-3M melanoma = test system: MALME-3M melanoma
SNB-19 CNS = test system: SNB-19 CNS
OVCAR-5 ovarian = test system: OVCAR-5 ovarian
EKVX NSCLC = test system: EKVX NSCLC
UACC-257 melanoma = test system: UACC-257 melanoma
SK-OV-3 ovarian = test system: SK-OV-3 ovarian
HS 578T breast = test system: HS 578T breast
MCF7 breast = test system: MCF7 breast
T-47D breast = test system: T-47D breast
NCI-H23 lung = test system: NCI-H23 lung
K-562 leukemia = test system: K-562 leukemia
OVCAR-8 ovarian = test system: OVCAR-8 ovarian
SW-620 colon = test system: SW-620 colon
SR leukemia = test system: SR leukemia
A498 renal = test system: A498 renal
UACC-62 melanoma = test system: UACC-62 melanoma
SK-MEL-28 melanoma = test system: SK-MEL-28 melanoma
HCT-116 colon = test system: HCT-116 colon
SF-539 CNS = test system: SF-539 CNS
NCI-H226 lung = test system: NCI-H226 lung
OVCAR-3 ovarian = test system: OVCAR-3 ovarian
CAKI-1 renal = test system: CAKI-1 renal
HOP-92 NSCLC = test system: HOP-92 NSCLC
M14 melanoma = test system: M14 melanoma
HOP-62 NSCLC = test system: HOP-62 NSCLC
SK-MEL-2 melanoma = test system: SK-MEL-2 melanoma
BT-549 breast = test system: BT-549 breast

SMILES: COc1cc(/C=C2\C(=O)Nc3ccccc32)cc(OC)c1O
- GI50 (RPMI-8226 leukemia): 5.47 µM
- TGI (RPMI-8226 leukemia): 27.5 µM
- GI50 (SNB-75 CNS): 1.17 µM
- TGI (SNB-75 CNS): 8.44 µM
- GI50 (PC-3 prostate): 21 µM
- TGI (PC-3 prostate): > 100 µM
- GI50 (KM12 colon): 2.53 µM
- TGI (KM12 colon): 11.5 µM
- GI50 (HT29 colon): 9.07 µM
- TGI (HT29 colon): 31.1 µM
- GI50 (RXF 393 renal): 2.52 µM
- TGI (RXF 393 renal): 8.41 µM
- GI50 (MDA-MB-231 breast): 3.09 µM
- TGI (MDA-MB-231 breast): 20.8 µM
- GI50 (786-0 renal): 7.07 µM
- TGI (786-0 renal): 27.5 µM
- GI50 (SF-295 CNS): 2.99 µM
- TGI (SF-295 CNS): 31.2 µM
- GI50 (OVCAR-4 ovarian): 4.95 µM
- TGI (OVCAR-4 ovarian): 31.3 µM
- GI50 (UO-31 renal): 2.63 µM
- TGI (UO-31 renal): 19.9 µM
- GI50 (MOLT-4 leukemia): 3.82 µM
- TGI (MOLT-4 leukemia): 92.3 µM
- GI50 (HCT-15 colon): 3.16 µM
- TGI (HCT-15 colon): 15.1 µM
- GI50 (SK-MEL-5 melanoma): 2.87 µM
- TGI (SK-MEL-5 melanoma): 10.8 µM
- GI50 (NCI-H460 lung): 3.12 µM
- TGI (NCI-H460 lung): 11.7 µM
- GI50 (ACHN renal): 4.7 µM
- TGI (ACHN renal): 22.2 µM
- GI50 (COLO 205 colon): 12.3 µM
- TGI (COLO 205 colon): 26.8 µM
- GI50 (NCI-H522 lung): 1.72 µM
- TGI (NCI-H522 lung): 5.1 µM
- GI50 (U251 CNS): 2.37 µM
- TGI (U251 CNS): 14 µM
- GI50 (A549 NSCLC): 4.91 µM
- TGI (A549 NSCLC): 48.1 µM
- GI50 (DU-145 prostate): 5.35 µM
- TGI (DU-145 prostate): 46.4 µM
- GI50 (NCI/ADR-RES ovarian): 2.47 µM
- TGI (NCI/ADR-RES ovarian): 7.62 µM
- GI50 (SN12C renal): 3.61 µM
- TGI (SN12C renal): 23.3 µM
- GI50 (CCRF-CEM leukemia): 5.16 µM
- TGI (CCRF-CEM leukemia): > 100 µM
- GI50 (MDA-MB-435): 0.649 µM
- TGI (MDA-MB-435): 2.21 µM
- GI50 (TK-10 renal): 7.14 µM
- TGI (TK-10 renal): 37.1 µM
- GI50 (LOX IMVI melanoma): 3.99 µM
- TGI (LOX IMVI melanoma): 16.3 µM
- GI50 (HL-60(TB) leukemia): 2.8 µM
- TGI (HL-60(TB) leukemia): 11.1 µM
- GI50 (IGROV1 ovarian): 3.72 µM
- TGI (IGROV1 ovarian): 20.4 µM
- GI50 (SF-268 CNS): 4.24 µM
- TGI (SF-268 CNS): 29.1 µM
- GI50 (HCC-2998 colon): 11.9 µM
- TGI (HCC-2998 colon): 24.5 µM
- GI50 (MALME-3M melanoma): 2.98 µM
- TGI (MALME-3M melanoma): 21.8 µM
- GI50 (SNB-19 CNS): 4.45 µM
- TGI (SNB-19 CNS): 55.6 µM
- GI50 (OVCAR-5 ovarian): 4.71 µM
- TGI (OVCAR-5 ovarian): 18.8 µM
- GI50 (EKVX NSCLC): 4.86 µM
- TGI (EKVX NSCLC): 48.2 µM
- GI50 (UACC-257 melanoma): 1.81 µM
- TGI (UACC-257 melanoma): 18.7 µM
- GI50 (SK-OV-3 ovarian): 3.88 µM
- TGI (SK-OV-3 ovarian): 21.6 µM
- GI50 (HS 578T breast): 1.77 µM
- TGI (HS 578T breast): 6.11 µM
- GI50 (MCF7 breast): 0.728 µM
- TGI (MCF7 breast): 15 µM
- GI50 (T-47D breast): 3.56 µM
- TGI (T-47D breast): 84.5 µM
- GI50 (NCI-H23 lung): 4.97 µM
- TGI (NCI-H23 lung): 34.2 µM
- GI50 (K-562 leukemia): 2.12 µM
- TGI (K-562 leukemia): > 100 µM
- GI50 (OVCAR-8 ovarian): 4.98 µM
- TGI (OVCAR-8 ovarian): 29.7 µM
- GI50 (SW-620 colon): 3.39 µM
- TGI (SW-620 colon): 13.1 µM
- GI50 (SR leukemia): 1.6 µM
- TGI (SR leukemia): 16.9 µM
- GI50 (A498 renal): 2.08 µM
- TGI (A498 renal): 15.8 µM
- GI50 (UACC-62 melanoma): 2.59 µM
- TGI (UACC-62 melanoma): 11.1 µM
- GI50 (SK-MEL-28 melanoma): 5.06 µM
- TGI (SK-MEL-28 melanoma): 23 µM
- GI50 (HCT-116 colon): 3.29 µM
- TGI (HCT-116 colon): 13.5 µM
- GI50 (SF-539 CNS): 2.5 µM
- TGI (SF-539 CNS): 13.3 µM
- GI50 (NCI-H226 lung): 17.7 µM
- TGI (NCI-H226 lung): > 100 µM
- GI50 (OVCAR-3 ovarian): 1.98 µM
- TGI (OVCAR-3 ovarian): 5.05 µM
- GI50 (CAKI-1 renal): 2.93 µM
- TGI (CAKI-1 renal): 25.3 µM
- GI50 (HOP-92 NSCLC): 4.15 µM
- TGI (HOP-92 NSCLC): 49.2 µM
- GI50 (M14 melanoma): 2.76 µM
- TGI (M14 melanoma): 11 µM
- GI50 (HOP-62 NSCLC): 4.24 µM
- TGI (HOP-62 NSCLC): 23.2 µM

SMILES: c1ccc(-c2nnc(CCCCCCCCc3nnc(-c4ccccc4)o3)o2)cc1
- TGI (SNB-75 CNS): > 100 µM
- TGI (PC-3 prostate): > 100 µM
- TGI (KM12 colon): > 100 µM
- TGI (HT29 colon): > 100 µM
- TGI (MDA-MB-231 breast): > 100 µM
- TGI (786-0 renal): > 100 µM
- TGI (SF-295 CNS): > 100 µM
- TGI (OVCAR-4 ovarian): > 100 µM
- TGI (UO-31 renal): > 100 µM
- TGI (MOLT-4 leukemia): > 100 µM
- TGI (HCT-15 colon): > 100 µM
- TGI (SK-MEL-5 melanoma): > 100 µM
- TGI (NCI-H460 lung): > 100 µM
- TGI (ACHN renal): > 100 µM
- TGI (COLO 205 colon): > 100 µM
- TGI (NCI-H522 lung): 61 µM
- TGI (U251 CNS): > 100 µM
- TGI (A549 NSCLC): > 100 µM
- TGI (DU-145 prostate): > 100 µM
- TGI (NCI/ADR-RES ovarian): > 100 µM
- TGI (SN12C renal): > 100 µM
- TGI (CCRF-CEM leukemia): > 100 µM
- TGI (MDA-MB-435): > 100 µM
- TGI (TK-10 renal): > 100 µM
- TGI (LOX IMVI melanoma): > 100 µM
- TGI (SK-MEL-2 melanoma): > 100 µM
- TGI (HL-60(TB) leukemia): > 100 µM
- TGI (IGROV1 ovarian): > 100 µM
- TGI (SF-268 CNS): > 100 µM
- TGI (HCC-2998 colon): 91.6 µM
- TGI (MALME-3M melanoma): > 100 µM
- TGI (SNB-19 CNS): > 100 µM
- TGI (OVCAR-5 ovarian): > 100 µM
- TGI (EKVX NSCLC): > 100 µM
- TGI (UACC-257 melanoma): > 100 µM
- TGI (SK-OV-3 ovarian): > 100 µM
- TGI (MCF7 breast): > 100 µM
- TGI (NCI-H23 lung): > 100 µM
- TGI (K-562 leukemia): > 100 µM
- TGI (OVCAR-8 ovarian): > 100 µM
- TGI (SW-620 colon): > 100 µM
- TGI (A498 renal): > 100 µM
- TGI (SK-MEL-28 melanoma): > 100 µM
- TGI (HCT-116 colon): > 100 µM
- TGI (SF-539 CNS): > 100 µM
- TGI (NCI-H226 lung): > 100 µM
- TGI (OVCAR-3 ovarian): > 100 µM
- TGI (CAKI-1 renal): > 100 µM
- TGI (HOP-92 NSCLC): > 100 µM
- TGI (M14 melanoma): > 100 µM
- TGI (HOP-62 NSCLC): > 100 µM
- TGI (BT-549 breast): > 100 µM
